Source: PubChem BioAssay (NCI)
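Cells were grown in 96-well plates and exposed to each compound for 48 hours at five concentrations; endpoints were interpolated linearly between bracketing concentrations, or set to the highest concentration if not reached. Here, GI50 denotes the concentration required for 50% inhibition of growth. TGI denotes the concentration required for complete inhibition of growth.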

Key:
Assay in all cases: growth of human tumour cells (NCI), 48 h
[1] = system: HCT-116 colon
[2] = system: UACC-62 melanoma
[3] = system: SF-295 CNS
[4] = system: MDA-MB-231 breast
[5] = system: SK-MEL-2 melanoma
[6] = system: SK-MEL-5 melanoma
[7] = system: ACHN renal
[8] = system: HCT-15 colon
[9] = system: UACC-257 melanoma
[10] = system: UO-31 renal
[11] = system: A549 NSCLC
[12] = system: MCF7 breast
[13] = system: COLO 205 colon
[14] = system: RPMI-8226 leukemia
[15] = system: U251 CNS
[16] = system: SW-620 colon
[17] = system: 786-0 renal
[18] = system: NCI/ADR-RES ovarian
[19] = system: SN12C renal
[20] = system: T-47D breast
[21] = system: SF-539 CNS
[22] = system: MOLT-4 leukemia
[23] = system: HCC-2998 colon
[24] = system: SK-MEL-28 melanoma
[25] = system: NCI-H226 lung
[26] = system: LOX IMVI melanoma
[27] = system: EKVX NSCLC
[28] = system: SF-268 CNS
[29] = system: HOP-62 NSCLC
[30] = system: NCI-H23 lung
[31] = system: IGROV1 ovarian
[32] = system: RXF 393 renal
[33] = system: HT29 colon
[34] = system: HL-60(TB) leukemia
[35] = system: MALME-3M melanoma
[36] = system: OVCAR-3 ovarian
[37] = system: OVCAR-8 ovarian
[38] = system: M14 melanoma
[39] = system: OVCAR-5 ovarian
[40] = system: HS 578T breast
[41] = system: CAKI-1 renal
[42] = system: K-562 leukemia
[43] = system: A498 renal
[44] = system: KM12 colon
[45] = system: NCI-H522 lung
[46] = system: NCI-H460 lung
[47] = system: SNB-75 CNS
[48] = system: MDA-MB-435
[49] = system: SK-OV-3 ovarian
[50] = system: PC-3 prostate
[51] = system: BT-549 breast
[52] = system: HOP-92 NSCLC
[53] = system: SNB-19 CNS
[54] = system: SR leukemia
[55] = system: DU-145 prostate
[56] = system: OVCAR-4 ovarian
[57] = system: CCRF-CEM leukemia
[58] = system: TK-10 renal

Work on `CC1(C)CCC(S(=O)(=O)c2ccc3c(c2)/C(=N\O)c2cc(S(=O)(=O)N4CCN(c5ccc(F)cc5O)CC4)ccc2-3)CC1` yielded a GI50 [1] of 33.2 nM, a TGI [1] of 119 nM and a GI50 [2] of 71.7 nM. The TGI [2] was 221 nM, the GI50 [3] was 176 nM and the TGI [3] was 394 nM. For the same compound, the GI50 [4] was 72.1 nM, the TGI [4] was 289 nM and the GI50 [5] was 73 nM. It also gave a TGI [5] of 204 nM, a GI50 [6] of 179 nM and a TGI [6] of 326 nM. It also gave a GI50 [7] of 282 nM, a TGI [7] of 1340 nM and a GI50 [8] of 153 nM. For the same compound, the TGI [8] was 445 nM, the GI50 [9] was 165 nM and the TGI [9] was 491 nM. It also gave a GI50 [10] of 188 nM, a TGI [10] of 460 nM and a GI50 [11] of 68 nM. The TGI [11] was 218 nM, the GI50 [12] was 159 nM and the TGI [12] was 453 nM. The GI50 [13] was 54.8 nM, the TGI [13] was 183 nM and the GI50 [14] was 126 nM. For the same compound, the TGI [14] was 1150 nM, the GI50 [15] was 105 nM and the TGI [15] was 223 nM. For the same compound, the GI50 [16] was 46.7 nM, the TGI [16] was 168 nM and the GI50 [17] was 186 nM. The TGI [17] was 415 nM, the GI50 [18] was 443 nM and the TGI [18] was 2630 nM. For the same compound, the GI50 [19] was 683 nM, the GI50 [20] was 104 nM and the TGI [20] was 234 nM. For the same compound, the GI50 [21] was 127 nM, the TGI [21] was 270 nM and the GI50 [22] was 76.2 nM. The TGI [22] was 242 nM, the GI50 [23] was 104 nM and the TGI [23] was 262 nM. It also gave a GI50 [24] of 129 nM, a TGI [24] of 293 nM and a GI50 [25] of 206 nM. It also gave a TGI [25] of 512 nM, a GI50 [26] of 21.3 nM and a TGI [26] of 50.4 nM. For the same compound, the GI50 [27] was 152 nM, the TGI [27] was 515 nM and the GI50 [28] was 109 nM. It also gave a TGI [28] of 286 nM, a GI50 [29] of 101 nM and a TGI [29] of 237 nM. The GI50 [30] was 230 nM, the TGI [30] was 583 nM and the GI50 [31] was 149 nM. It also gave a TGI [31] of 346 nM, a GI50 [32] of 157 nM and a TGI [32] of 314 nM. For the same compound, the GI50 [33] was 44 nM, the TGI [33] was 182 nM and the GI50 [34] was 98.6 nM. For the same compound, the TGI [34] was 288 nM, the GI50 [35] was 141 nM and the TGI [35] was 295 nM. For the same compound, the GI50 [36] was 117 nM, the TGI [36] was 285 nM and the GI50 [37] was 86.9 nM. The TGI [37] was 402 nM, the GI50 [38] was 35.2 nM and the TGI [38] was 144 nM. The GI50 [39] was 164 nM, the TGI [39] was 367 nM and the GI50 [40] was 163 nM. It also gave a TGI [40] of 448 nM, a GI50 [41] of 157 nM and a TGI [41] of 351 nM. For the same compound, the GI50 [42] was 50.8 nM, the TGI [42] was 188 nM and the GI50 [43] was 840 nM. The TGI [43] was 2630 nM, the GI50 [44] was 47.9 nM and the TGI [44] was 220 nM. It also gave a GI50 [45] of 147 nM, a TGI [45] of 290 nM and a GI50 [46] of 66.1 nM. It also gave a TGI [46] of 223 nM, a GI50 [47] of 162 nM and a TGI [47] of 324 nM. The GI50 [48] was 107 nM, the TGI [48] was 251 nM and the GI50 [49] was 109 nM. For the same compound, the TGI [49] was 240 nM, the GI50 [50] was 108 nM and the TGI [50] was 314 nM. The GI50 [51] was 133 nM, the TGI [51] was 286 nM and the GI50 [52] was 219 nM. For the same compound, the TGI [52] was 504 nM, the GI50 [53] was 211 nM and the TGI [53] was 486 nM. It also gave a GI50 [54] of 29.3 nM, a TGI [54] of 80.2 nM and a GI50 [55] of 51.7 nM. For the same compound, the TGI [55] was 284 nM, the GI50 [56] was 63.5 nM and the TGI [56] was 263 nM. The GI50 [57] was 93 nM and the TGI [57] was 370 nM.

Work on `COc1ccc(Nc2nc3cc(C(F)(F)F)ccc3nc2C(=O)O)cc1OC` yielded a TGI [1] of 95700 nM, a TGI [2] of 53600 nM and a TGI [3] of 45500 nM. It also gave a TGI [4] of 65600 nM, a TGI [5] of 33200 nM and a TGI [6] of 47900 nM. The TGI [7] was > 100000 nM, the TGI [8] was > 100000 nM and the TGI [9] was > 100000 nM. For the same compound, the TGI [10] was > 100000 nM, the TGI [11] was > 100000 nM and the TGI [12] was 95300 nM. For the same compound, the TGI [13] was 69300 nM, the TGI [14] was 92000 nM and the TGI [15] was > 100000 nM. The TGI [16] was > 100000 nM, the TGI [17] was > 100000 nM and the TGI [18] was > 100000 nM. For the same compound, the TGI [19] was 64200 nM, the TGI [20] was > 100000 nM and the TGI [21] was 62300 nM. The TGI [58] was > 100000 nM, the TGI [22] was 69500 nM and the TGI [23] was > 100000 nM. The TGI [24] was > 100000 nM, the TGI [25] was 55600 nM and the TGI [26] was > 100000 nM. For the same compound, the TGI [27] was > 100000 nM, the TGI [28] was > 100000 nM and the TGI [29] was > 100000 nM. For the same compound, the TGI [30] was 78900 nM, the TGI [31] was > 100000 nM and the TGI [32] was 60200 nM. For the same compound, the TGI [33] was > 100000 nM, the TGI [34] was 72200 nM and the TGI [35] was > 100000 nM. For the same compound, the TGI [36] was 93300 nM, the TGI [37] was > 100000 nM and the TGI [38] was > 100000 nM. The TGI [39] was > 100000 nM, the TGI [40] was > 100000 nM and the TGI [41] was 56300 nM. For the same compound, the TGI [42] was > 100000 nM, the TGI [43] was > 100000 nM and the TGI [44] was 88400 nM. For the same compound, the TGI [45] was > 100000 nM, the TGI [46] was > 100000 nM and the TGI [47] was > 100000 nM. For the same compound, the TGI [48] was > 100000 nM, the TGI [50] was > 100000 nM and the TGI [51] was > 100000 nM. For the same compound, the TGI [52] was 74900 nM, the TGI [53] was > 100000 nM and the TGI [54] was 77000 nM. For the same compound, the TGI [55] was > 100000 nM, the TGI [56] was > 100000 nM and the TGI [57] was 67500 nM.
